The record followed here is patent publication US20080125432A1 (Devgen NV, priority 2004, published 2008).

Each structure is given as a SMILES string.

The term melting point denotes the temperature of the solid-liquid transition.

In the case of `COc1ccccc1Nc1nc(C)c(C(=O)NCc2cccc(OC(F)(F)F)c2)s1` [Compound 158, 2-(2-methoxy-phenylamino)-4-methyl-thiazole-5-carboxylic acid 3-trifluoromethoxy-benzylamide], the melting point was in the range of 96.1 to 100.3 °C. With `COc1ccccc1Nc1nc(C)c(C(=O)N2CCC(c3ccc(C)cc3)CC2)s1` [Compound 168, [2-(2-methoxy-phenylamino)-4-methyl-thiazol-5-yl]-[4-p-tolyl-piperidin-1-yl]-methanone] the figure was 187.7 to 191.5 °C.

In turn, `COC(=O)[C@H](NC(=O)c1sc(Nc2ccccc2OC)nc1C)c1ccccc1` [Compound 151, (R)-{[2-(2-methoxy-phenylamino)-4-methyl-thiazole-5-carbonyl]-amino}-phenyl-aceticacid methyl ester] returned a melting point of 131.4 to 137.9 °C. Under `COc1ccccc1Nc1nc(C)c(C(=O)NCc2ccc3c(c2)OCO3)s1` [Compound 162, 2-(2-methoxy-phenylamino)-4-methyl-thiazole-5-carboxylic acid (benzo[1,3]dioxol-5-ylmethyl)-amide] stands 166 to 167.4 °C.

The molecule `COc1ccccc1Nc1ncc(C(=O)NCc2ccc(F)c(C(F)(F)F)c2)[nH]1` [Compound 226, 2-(2-methoxy-phenylamino)-3H-imidazole-4-carboxylic acid 4-fluoro-3-trifluoromethyl-benzylamide] showed a melting point of 227.9 to 230 °C. With `COc1ccc(CNC(=O)c2sc(Nc3ccccc3OC)nc2C)cc1` [Compound 218, 2-(2-methoxy-phenylamino)-4-methyl-thiazole-5-carboxylic acid 4-methoxybenzylamide] the figure was 143.9 to 144.8 °C; with `COc1ccccc1Nc1ncc(C(=O)NCc2ccccc2)[nH]1` [Compound 224, 2-(2-methoxy-phenylamino)-3H-imidazole-4-carboxylic acid benzylamide], 212.5 to 213.9 °C; with `COc1ccccc1Nc1nc(C)c(C(=O)NC2CCCc3ccccc32)s1` (stereo not shown) [Compound 173, 2-(2-methoxy-phenylamino)-4-methyl-thiazole-5-carboxylic acid (1,2,3,4-tetrahydro-naphthalen-1-yl)-amide], 129.4 °C.

`COc1ccccc1N(C)c1nc(C)c(C(=O)N[C@H](CO)c2ccccc2)s1` [Compound 150, 2-[(2-methoxy-phenyl)-methyl-amino]-4-methyl-thiazole-5-carboxylic acid ((S)-2-hydroxy-1-phenyl-ethyl)-amide] registered a melting point of 119.4 °C. In turn, `COc1ccccc1Nc1nc(C)c(C(=O)NCc2ccccc2)o1` [Compound 221, 2-(2-methoxy-phenylamino)-4-methyl-oxazole-5-carboxylic acid benzylamide] returned a melting point of 125.9 to 130.2 °C. With `COc1ccccc1Nc1nc(C)c(C(=O)NCc2ccccc2OC(F)(F)F)s1` [Compound 157, 2-(2-methoxy-phenylamino)-4-methyl-thiazole-5-carboxylic acid 2-trifluoromethoxy-benzylamide] the figure was 76.1 to 80.2 °C; with `COc1ccccc1N(C(C)=O)c1nc(C)c(C(=O)N[C@H]2CCC[C@@H]2OCc2ccccc2)s1` [Compound 129, 2-[acetyl-(2-methoxy-phenyl)-amino]-4-methyl-thiazole-5-carboxylic acid ((1S,2S)-2-benzyloxycyclopent-1-yl) amide], 145.8 to 149 °C. Under `COc1ccccc1Nc1nc(C)c(C(=O)N2CCC(C(=O)c3ccc(F)cc3)CC2)s1` [Compound 175, [4-(4-fluoro-benzoyl)-piperidin-1-yl]-[2-(2-methoxy-phenylamino)-4-methyl-thiazol-5-yl]-methanone] stands 92.6 to 99.6 °C. With `COc1cccc(Nc2nc(C)c(C(=O)N[C@H]3CCC[C@@H]3OCc3ccccc3)s2)c1` [Compound 133, 2-(3-methoxy-phenylamino)-4-methyl-thiazole-5-carboxylic acid ((1S,2S)-2-benzyloxycyclopent-1-yl) amide] the figure was 152.8 to 155.9 °C.

On to `COc1ccc(CNC(=O)c2oc(Nc3ccccc3OC)nc2C)c(OC)c1` [Compound 222, 2-(2-methoxy-phenylamino)-4-methyl-oxazole-5-carboxylic acid 2,4-dimethoxy-benzylamide], for which the melting point was 68.7 to 82.4 °C. With `COc1ccccc1Nc1nc(C)c(C(=O)N2CCC(Cc3ccccc3)CC2)s1` [Compound 174, (4-benzyl-piperidin-1-yl)-[2-(2-methoxy-phenylamino)-4-methyl-thiazol-5-yl]-methanone] the figure was 166.8 to 169.2 °C; with `COc1ccccc1Nc1nc(C)c(C(=O)NCc2ccc(OC(F)(F)F)cc2)s1` [Compound 159, 2-(2-methoxy-phenylamino)-4-methyl-thiazole-5-carboxylic acid 4-trifluoromethoxy-benzylamide], 135.2 to 138.9 °C; with `Cc1nc(Nc2ccncc2)sc1C(=O)N[C@H]1CCC[C@@H]1OCc1ccccc1` [Compound 153, 4-methyl-2-(pyridin-4-ylamino)-thiazole-5-carboxylic acid ((1S,2S)-2-benzyloxycyclopent-1-yl) amide], 78.1 to 81.7 °C. With `COc1ccccc1Nc1nc(C)c(C(=O)Nc2ccc(Cn3cccn3)cc2)s1` [Compound 166, 2-(2-methoxy-phenylamino)-4-methyl-thiazole-5-carboxylic acid (4-pyrazol-1-ylmethyl-phenyl)-amide] the figure was 211.3 to 214.4 °C; with `COc1ccccc1Nc1nc(C)c(C(=O)N2CCCC2c2ccccc2)s1` (stereo not shown) [Compound 176, [2-(2-methoxy-phenylamino)-4-methyl-thiazol-5-yl]-(2-phenyl-pyrrolidin-1-yl)-methanone], 113.5 to 117.6 °C; with `COc1ccccc1Nc1nc(C)c(C(=O)NCc2cccc(Br)c2)s1` [Compound 147, 2-(2-methoxy-phenylamino)-4-methyl-thiazole-5-carboxylic acid 3-bromo-benzylamide], 161.3 to 164.1 °C. On to `COc1ccccc1Nc1nc(C)c(C(=O)NCc2ccccc2C)s1` [Compound 140, 2-(2-methoxy-phenylamino)-4-methyl-thiazole-5-carboxylic acid 2-methyl-benzylamide], for which the melting point was 118.3 to 121.7 °C. In the case of `Cc1nc(Nc2ccc(N3CCOCC3)cc2)sc1C(=O)N[C@H]1CCC[C@@H]1OCc1ccccc1` [Compound 92, 4-methyl-2-(4-morpholin-4-yl-phenylamino)-thiazole-5-carboxylic acid ((1S,2S)-2-benzyloxycyclopent-1-yl) amide], the melting point was in the range of 192.5 to 194.9 °C. With `COC(=O)[C@@H](NC(=O)c1sc(Nc2ccccc2OC)nc1C)c1ccccc1` [Compound 152, (S)-{[2-(2-methoxy-phenylamino)-4-methyl-thiazole-5-carbonyl]-amino}-phenyl-aceticacid methyl ester] the figure was 133.5 to 135.7 °C. Under `COc1ccccc1Nc1nc(C)c(C(=O)NC2CCc3ccccc32)s1` (stereo not shown) [Compound 164, 2-(2-methoxy-phenylamino)-4-methyl-thiazole-5-carboxylic acid indan-1-ylamide] stands 146.2 to 148 °C.
